Experimental findings from patent publication US5360613A, “Method of reducing blood levels of total cholesterol and low-density lipoprotein cholesterol” (Iowa State University Research Foundation, Inc., priority 1993, dated 1994) are described below.

What all share (format): in vivo, humans
The nature of data set [1]: Human dose-response study, blood HMB (Example V). As for the experimental part:
(§1) Higher dose levels than in Example IV of Ca-HMB were tested in humans. The objective was to obtain an indication of whether higher doses could be safely administered, and also whether higher doses might provide a greater reduction in total cholesterol and LDL cholesterol.
(§2) Normal humans were used in the study. Ca-HMB was administered in 250 mg capsules, and the subjects were instructed to take the capsules in 4 equal doses daily. No control of diet was attempted except they were instructed to eat as they normally would. On alternate days the subjects had blood drawn before the morning meal and before they took the morning HMB dose. Four subjects were studied for dose level of 05., 1, 2 and 4 grams per day.

Data set [2] can be described thus: Human dose-response study, body weight and body fat (Example V, Table E). The note with it: study combined with Example IV. As for the experimental part: as §1, §2
Results from all samples of each subject were subjected to linear regression and the slope and intercept used to calculate the % change in concentration after 8 days on treatment. The percentage changes were then subjected to ANOVA-regression to determine if there was a linear effect of dosage on the parameter. The dose-response effect (p<) is listed in the linear effect column of Table E.

Data set [3] can be described thus: Human dose-response study, adverse effects (Example V). The note with it: 0.5 to 4 g per day. As for the experimental part: as §1, §2

Consider `CC(C)(O)CC(=O)O` [HMB, β-hydroxy-β-methylbutyric acid], for which the “Blood HMB” value in data set [1] (0.5 to 4 g per day) is listed as “increased in a dose-responsive manner”. Further, the “increase in blood HMB” value in data set [1] (4 grams per day) is on record as “very large increase”. Also, the “effect on body fat” value in data set [2] is “extremely suggestive of an effect on body fat”. In data set [3], the adverse affects entry was “no adverse affects” and the “complaint noted with several patients” value is “being hungrier than normal”.
